Assay [1] has as its system PluxC-gfp reporter in V. vulnificus. Briefly: PluxC-gfp reporter in V. vulnificus strains. The conditions noted are these: Vibrio vulnificus.
The test system of assay [2] is PluxC-gfp reporter in V. parahaemolyticus. Kind of assay: PluxC-gfp reporter in V. parahaemolyticus strains. The conditions noted are these: Vibrio parahaemolyticus.
Assay [3] relates to PluxC-gfp reporter in V. coralliilyticus. Kind of assay: PluxC-gfp reporter in V. coralliilyticus strains.
Assay [4] concerns PluxC-gfp reporter in V. campbellii. Briefly: PluxC-gfp reporter in V. campbellii strains. The conditions noted are these: Vibrio campbellii.
The next assay deals with T1, V. campbellii LuxR (Vibrio harveyi, UniProt P21308).
T1 construct: expressed in transfected cells; host or cells: E. coli DH10B with pKM699 and reporter pJV064
Kind of assay: E. coli dual-color bioassay (pKM699 LuxR, pJV064 reporter). Format: cell-based. The conditions noted are these: for Inhibition of LuxR in the E. coli bioassay (in words): GFP and mCherry reporters. From the text:
Previously, we developed a bioassay that consists of a dual-color fluorescent reporter plasmid that reports both LuxR activities: the luxCDABE promoter is activated by LuxR and drives expression of gfp, and the VIBHAR_05222 promoter is repressed by LuxR and drives expression of mCherry (van Kessel et al., 2013b) (FIG. 2A). We used this reporter plasmid in an E. coli strain that also contains a plasmid expressing LuxR from its native promoter.
A bioassay was developed to monitor LuxR function that consists of a dual-color reporter plasmid (pJV064) that reports both activities: the luxCDABE promoter is activated by LuxR and drives expression of gfp, and the 05222 promoter is repressed by LuxR and drives expression of mCherry (van Kessel, Ulrich et al. 2013). This reporter plasmid was used in an E. coli strain that also contains a plasmid (pKM699) expressing LuxR from its native promoter. E. coli cultures containing these two plasmids were grown at 30° C. in LB medium with chloramphenicol (10 μg/ml) and tetracycline (10 μg/ml) to select for the two plasmids. Compounds were added to the cultures at a range of concentrations, and the cultures were incubated for 16 hours shaking at 30° C.
The dual-promoter fluorescence reporter assays were performed using E. coli strain DH10B containing two plasmids: 1) plasmid pJV064 containing the PluxC fused to GFP and P05222fused to mCherry to assess LuxR transcriptional regulation, and 2) plasmid pKM699 expressing V. campbellii luxR under control of its native promoter or empty vector pLAFR2.

[5] abbreviates: ATCC27562, read-out: Inhibition (IC50) of the PluxC-gfp reporter, Vvul ATCC 27562.
Where [6] appears, read: read-out: Inhibition (IC50) of the PluxC-gfp reporter, Vvul CMPC6.
[7] abbreviates: read-out: Inhibition (IC50) of the PluxC-gfp reporter, Vvul YJ016.
The mark [8] stands for this setting: read-out: Inhibition (IC50) of the PluxC-gfp reporter, Vpara 12-297/B.
[9] abbreviates: read-out: Inhibition (IC50) of the PluxC-gfp reporter, Vpara D4.
Where [10] appears, read: read-out: Inhibition (IC50) of the PluxC-gfp reporter, Vpara RIMD 2210633.
The mark [11] stands for this setting: read-out: Inhibition (IC50) of the PluxC-gfp reporter, Vcoral OCN 008.
The mark [12] stands for this setting: read-out: Inhibition (IC50) of the PluxC-gfp reporter, Vcoral OCN 014.
[13] abbreviates: ATCC25920, read-out: Inhibition (IC50) of the PluxC-gfp reporter, Vcamp ATCC 25920.
The mark [14] stands for this setting: read-out: Inhibition (IC50) of the PluxC-gfp reporter, Vcamp BB120.
The mark [15] stands for this setting: read-out: Inhibition (IC50) of the PluxC-gfp reporter, Vcamp HY01.
[16] abbreviates: read-out: IC50 in the bioassay (approximate).

Where two headings read alike, the source gives them in different places.

T1 sequence (P21308 whole entry): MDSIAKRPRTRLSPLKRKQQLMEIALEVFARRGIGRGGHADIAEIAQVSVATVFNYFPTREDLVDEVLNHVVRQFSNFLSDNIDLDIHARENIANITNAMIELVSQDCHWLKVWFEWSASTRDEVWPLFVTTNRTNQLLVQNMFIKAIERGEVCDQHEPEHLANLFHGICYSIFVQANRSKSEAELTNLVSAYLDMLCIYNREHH

As for `O=S(=O)(c1cccs1)n1cccn1` [Compound 1B, 1-(thiophen-2-ylsulfonyl)-1H-pyrazole], the IC50 worked out at 3.4 µM in assay [1] (setting [5]); 29.6 µM in assay [1] (setting [6]); 6.5 µM in assay [1] (setting [7]); 11.8 µM in assay [2] (setting [8]); 18.9 µM in assay [2] (setting [9]); 15.9 µM in assay [2] (setting [10]). The IC50 in assay [3] (setting [11]) amounted to 55.7 µM; in assay [3] (setting [12]) it was 101 µM; in assay [4] (setting [13]), 12.8 µM; in assay [4] (setting [14]) it was 52.6 µM; in assay [4] (setting [15]), 23.2 µM.
Take `O=S(=O)(c1ccc(Cl)s1)n1cccn1` [Compound 1C, 1-((5-chlorothiophen-2-yl)sulfonyl)-1H-pyrazole]: the IC50 was found to be 0.4 µM in assay [1] (setting [5]); 2.3 µM in assay [1] (setting [6]); 0.8 µM in assay [1] (setting [7]); 1.6 µM in assay [2] (setting [8]); 12.5 µM in assay [2] (setting [9]); 1.7 µM in assay [2] (setting [10]). In addition, the IC50 worked out at 9.1 µM in assay [3] (setting [11]); 9.4 µM in assay [3] (setting [12]); 0.5 µM in assay [4] (setting [13]); 3.3 µM in assay [4] (setting [14]); 1 µM in assay [4] (setting [15]).
In the case of `O=S(=O)(c1ccccc1)n1cccn1` [Compound 1E, 1-(phenylsulfonyl)-1H-pyrazole], the IC50 in assay [1] (setting [5]) amounted to 2.7 µM; in assay [1] (setting [6]), 22 µM; in assay [1] (setting [7]), 4.6 µM; in assay [2] (setting [8]), 8.1 µM; in assay [2] (setting [9]), 12.7 µM; in assay [2] (setting [10]) it was 11 µM. In addition, the IC50 turned out to be 49.2 µM in assay [3] (setting [11]); 66.2 µM in assay [3] (setting [12]); 8.4 µM in assay [4] (setting [13]); 51.4 µM in assay [4] (setting [14]); 14.8 µM in assay [4] (setting [15]).
In the case of `O=S(=O)(c1ccc(Br)s1)n1cccc1` [Compound 3A, 1-((5-bromothiophen-2-yl)sulfonyl)-1H-pyrrole], the IC50 was determined as 0.7 µM in assay [1] (setting [5]); 6.1 µM in assay [1] (setting [6]); 1.3 µM in assay [1] (setting [7]); 3 µM in assay [2] (setting [8]); 2.8 µM in assay [2] (setting [9]); 2.6 µM in assay [2] (setting [10]). Moreover, the IC50 was found to be 23.1 µM in assay [3] (setting [11]), 22.6 µM in assay [3] (setting [12]), 15 µM in assay [4] (setting [14]) and 1.6 µM in assay [4] (setting [15]).
Regarding `O=S(=O)(c1cccs1)n1cccc1` [Compound 3B, 1-(thiophen-2-ylsulfonyl)-1H-pyrrole], the IC50 in assay [1] (setting [5]) was 0.9 µM; in assay [1] (setting [6]) it was 5.9 µM; in assay [1] (setting [7]) it was 1.5 µM; in assay [2] (setting [8]) it was 4 µM; in assay [2] (setting [9]) it was 3.5 µM; in assay [2] (setting [10]), 2.5 µM. Also, the IC50 in assay [3] (setting [11]) came to 39.2 µM; in assay [3] (setting [12]), 95.1 µM; in assay [4] (setting [13]), 2 µM; in assay [4] (setting [14]), 18.9 µM; in assay [4] (setting [15]), 3.6 µM. Also, the “Effect in V. coralliilyticus OCN008 (in words)” value in assay [3] (OCN008) is recorded as “most noticeable effect”.
`O=S(=O)(c1ccc(Cl)s1)n1cccc1` [Compound 3C, 1-((5-chlorothiophen-2-yl)sulfonyl)-1H-pyrrole]: the IC50 in assay [1] (setting [5]) turned out to be 0.5 µM; in assay [2] (setting [10]), 2 µM; in assay [3] (setting [11]) it was 1.3 µM; in assay [4] (setting [14]), 8.3 µM.
Take `Cc1ccn(S(=O)(=O)c2ccc(Br)s2)n1` [Compound 8A, 1-((5-bromothiophen-2-yl)sulfonyl)-3-methyl-1H-pyrazole]: the IC50 is 10 to 20 µM on V. campbellii LuxR (setting [16]); 0.4 µM in assay [1] (setting [5]); 2.1 µM in assay [1] (setting [6]); 0.5 µM in assay [1] (setting [7]); 2.1 µM in assay [2] (setting [8]); 2.4 µM in assay [2] (setting [9]). Further, the IC50 in assay [2] (setting [10]) worked out at 2 µM; in assay [3] (setting [11]), 4.2 µM; in assay [3] (setting [12]) it was 9.6 µM; in assay [4] (setting [13]) it was 0.7 µM; in assay [4] (setting [14]), 3.8 µM; in assay [4] (setting [15]), 1.2 µM.
As to `Cc1ccn(S(=O)(=O)c2cccs2)n1` [Compound 8B, 3-methyl-1-(thiophen-2-ylsulfonyl)-1H-pyrazole], the “Inhibition of LuxR in the E. coli bioassay (in words)” value (“Inhibition of LuxR” below) on V. campbellii LuxR is listed as “does not show inhibition”. The IC50 in assay [1] (setting [5]) stood at 1.9 µM; in assay [1] (setting [6]), 11.5 µM; in assay [1] (setting [7]) it was 3 µM; in assay [2] (setting [8]), 6.7 µM; in assay [2] (setting [9]) it was 8.4 µM; in assay [2] (setting [10]), 7.3 µM. In addition, the IC50 in assay [3] (setting [11]) was 26.1 µM; in assay [3] (setting [12]), 26.8 µM; in assay [4] (setting [13]) it was 3.9 µM; in assay [4] (setting [14]), 32.4 µM; in assay [4] (setting [15]) it was 8.7 µM.
Regarding `Cc1ccn(S(=O)(=O)c2ccc(Cl)s2)n1` [Compound 8C, 1-((5-chlorothiophen-2-yl)sulfonyl)-3-methyl-1H-pyrazole], the IC50 is 10 to 20 µM on V. campbellii LuxR (setting [16]); 0.7 µM in assay [1] (setting [5]); 4.6 µM in assay [1] (setting [6]); 1 µM in assay [1] (setting [7]); 3.3 µM in assay [2] (setting [8]); 4.5 µM in assay [2] (setting [9]). Moreover, the IC50 worked out at 3.8 µM in assay [2] (setting [10]); 2.7 µM in assay [3] (setting [11]); 8.4 µM in assay [3] (setting [12]); 1.5 µM in assay [4] (setting [13]); 6.7 µM in assay [4] (setting [14]); 2.7 µM in assay [4] (setting [15]).
In the case of `O=C(c1ccc(COc2ccc(Cl)cc2)o1)N1CCN(Cc2ccc3c(c2)OCO3)CC1` [P0053 I18, (4-(benzo[d][1,3]dioxol-5-ylmethyl)piperazin-1-yl)(5-((4-chlorophenoxy)methyl)furan-2-yl)methanone], the IC50 in assay [1] (setting [5]) amounted to 0.7 µM; in assay [1] (setting [6]) it was 4.9 µM; in assay [1] (setting [7]), 3.2 µM; in assay [2] (setting [8]) it was 8.1 µM; in assay [2] (setting [9]) it was 6.4 µM; in assay [2] (setting [10]), 2.8 µM. The IC50 in assay [3] (setting [11]) is 18.9 µM; in assay [3] (setting [12]), 10.4 µM; in assay [4] (setting [13]) it was 1.8 µM; in assay [4] (setting [14]), 2 µM; in assay [4] (setting [15]), 4.3 µM.
Consider `O=S(=O)(c1ccc(Br)s1)N1CCCC1` [P0074 H04, 1-((5-bromothiophen-2-yl)sulfonyl)pyrrolidine], for which the “Inhibition of LuxR” value at V. campbellii LuxR is “consistent inhibition”. Besides, at V. campbellii LuxR (setting [16]), the IC50 was around 35 µM.
For the compound `FC(F)(F)C1CN(c2nc(-c3ccccc3)cs2)CCO1` (centres unmarked) [P2065 E16, 4-(4-phenylthiazol-2-yl)-2-(trifluoromethyl)morpholine], the “Inhibition of LuxR” value on V. campbellii LuxR is “only a minor inhibition”. Moreover, on V. campbellii LuxR (Table 2, titration, 16 hours, read-out: Inhibition (IC50) of GFP production by LuxR in E. coli bioassay), the IC50 was found to be 5.3 µM.
